Literature values in US20110136741A1 (priority 2008, published 2011).

Legend:
subtype sst2 receptors = subtype sst2 receptors (Homo sapiens, UniProt P30874)
hsst2 = hsst2 (Homo sapiens, UniProt P30874)
Sequence of hsst2 (P30874 whole entry): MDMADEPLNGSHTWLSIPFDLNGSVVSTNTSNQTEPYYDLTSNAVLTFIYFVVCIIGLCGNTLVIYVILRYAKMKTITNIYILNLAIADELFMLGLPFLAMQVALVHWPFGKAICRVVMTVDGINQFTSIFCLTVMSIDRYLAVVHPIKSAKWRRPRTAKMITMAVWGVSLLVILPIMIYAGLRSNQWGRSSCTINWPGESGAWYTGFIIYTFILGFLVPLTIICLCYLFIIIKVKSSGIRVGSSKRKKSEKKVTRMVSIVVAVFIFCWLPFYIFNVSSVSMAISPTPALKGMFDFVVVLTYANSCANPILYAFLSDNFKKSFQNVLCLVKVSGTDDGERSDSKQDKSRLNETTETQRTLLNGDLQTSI

Sequence of subtype sst2 receptors (P30874 whole entry): as above

affinity for subtype sst2 receptors (subtype sst2 receptors) | activity towards hsst2 receptor (hsst2) | SMILES | half-life in blood [min]
very high affinity | very active | C[C@@H](O)[C@@H]1NC(=O)[C@H](CCCCN)NC(=O)[C@@H](Cc2c[nH]c3ccccc23)NC(=O)[C@H](Cc2ccccc2)NC(=O)[C@@H](NC(=O)[C@H](N)Cc2ccccc2)CSSC[C@@H](C(=O)N[C@H](CO)[C@@H](C)O)NC1=O [octreotide] | 
 |  | CC(O)[C@@H]1NC(=O)[C@H](CCCCN)NC(=O)[C@H](Cc2c[nH]c3ccccc23)NC(=O)[C@H](Cc2ccccc2)NC(=O)[C@H](Cc2ccccc2)NC(=O)[C@H](CC(N)=O)NC(=O)[C@H](CCCCN)NC(=O)[C@@H](NC(=O)CNC(=O)[C@H](C)N)CSSC[C@@H](C(=O)O)NC(=O)[C@H](CO)NC(=O)[C@H]([C@@H](C)O)NC(=O)[C@H](Cc2ccccc2)NC1=O (stereo partly drawn) [somatostatin, Somatostatin-14] | < 3
